Active and inactive are the calls of the source. How the calls were made is not given here.
Test system: GENE-TOX genotoxicity assays, various organisms and cells
Test: GENE-TOX mutagenicity studies
Conditions: for call: Assay Type: In vivo carcinogenicity studies
[1] = Species/Cell Type: Escherichia coli polA (W3119 vs P3478), Assay Type: Rec-assay, DNA effects (bacterial DNA repair), Assay Code: RE1+, Evaluation Type: Evaluation A (Pre-1980)
[2] = Species/Cell Type: Neurospora crassa, Assay Type: Forward gene mutation, Assay Code: NEF+, Evaluation Type: Evaluation A (Pre-1980)
[3] = Species/Cell Type: Saccharomyces cerevisiae, Assay Type: Mitotic recombination or gene conversion, Assay Code: YEH+, Evaluation Type: Evaluation A (Pre-1980)
[4] = Species/Cell Type: Salmonella typhimurium (one or more of the five standard strains: TA98, TA100, TA1535, TA1537, and TA1538), Assay Type: Histidine reverse gene mutation, Ames assay, Assay Code: SAL+, Evaluation Type: Evaluation A (Pre-1980)
[5] = Species/Cell Type: Escherichia coli polA (W3119 vs P3478), Assay Type: Rec-assay, DNA effects (bacterial DNA repair), Assay Code: RE1T, Evaluation Type: Evaluation A (Pre-1980)

COS(C)(=O)=O
inactive: mutagenic call (Species/Cell Type: Salmonella typhimurium, Assay Type: Forward and reverse gene mutation, body fluid assay, Assay Code: BFU-, Evaluation Type: Evaluation A (Pre-1980)) inactive; negative
no conclusion: mutagenic call (Species/Cell Type: F1 mouse, Sex: Male, Assay Type: Sperm morphology, Assay Code: SPFT, Evaluation Type: Evaluation A (Pre-1980)) | mutagenic call (Species/Cell Type: Rabbit, Sex: Male, Assay Type: Sperm morphology, Assay Code: SPRT, Evaluation Type: Evaluation A (Pre-1980))
active: mutagenic call (Species/Cell Type: Arabidopsis species, Assay Type: Gene mutation, Assay Code: ARM+, Evaluation Type: Evaluation A (Pre-1980)) active; positive | mutagenic call (Species/Cell Type: Aspergillus nidulans, Assay Type: Reverse gene mutation, Assay Code: ASR+, Evaluation Type: Evaluation A (Pre-1980)) active; positive | mutagenic call (Species/Cell Type: Chinese hamster lung (V79) cells, Assay Type: Forward gene mutation at the HPRT or ouabain locus, Assay Code: V79+, Evaluation Type: Evaluation A (Pre-1980)) active; positive | mutagenic call (Species/Cell Type: Chinese hamster ovary (CHO) cells, Assay Type: Forward gene mutation at the HPRT locus, Assay Code: CHO+D, Dose Response: With dose response, Evaluation Type: Evaluation A (Pre-1980)) active; positive | mutagenic call (Species/Cell Type: Drosophila melanogaster, Assay Type: Sex-linked recessive lethal gene mutation, Assay Code: SRL+, Evaluation Type: Evaluation A (Pre-1980)) active; positive | mutagenic call (Species/Cell Type: Drosophila melanogaster, Sex: Male, Assay Type: Heritable translocation test, chromosome aberrations, Assay Code: DHT+, Evaluation Type: Evaluation A (Pre-1980)) active; positive | mutagenic call (Species/Cell Type: Escherichia coli WP2, Assay Type: Tryptophan reverse gene mutation, Assay Code: WP2+D, Dose Response: With dose response, Evaluation Type: Evaluation A (Pre-1980)) active; positive | mutagenic call (Species/Cell Type: Escherichia coli WP2 UVRA, Assay Type: Tryptophan reverse gene mutation, Assay Code: WPU+D, Dose Response: With dose response, Evaluation Type: Evaluation A (Pre-1980)) active; positive | mutagenic call [1] active; positive | mutagenic call (Species/Cell Type: Escherichia coli, Saccharomyces cerevisiae, Neurospora crassa, human lymphoid cells, Assay Type: Forward and reverse gene mutation, lethal mutation, mitotic recombination and gene conversion, chromosome effects, DNA e, Assay Code: HM9+, Evaluation Type: Evaluation A (Pre-1980)) active; positive | mutagenic call (Species/Cell Type: Glycine max (soybean), Assay Type: Gene mutation, Assay Code: GLM+, Evaluation Type: Evaluation A (Pre-1980)) active; positive | mutagenic call (Species/Cell Type: Hordeum vulgare (barley), Assay Type: Chromosome aberrations, Assay Code: HOC+, Evaluation Type: Evaluation A (Pre-1980)) active; positive | mutagenic call (Species/Cell Type: Hordeum vulgare (barley), Assay Type: Gene mutation, Assay Code: HOM+D, Dose Response: With dose response, Evaluation Type: Evaluation A (Pre-1980)) active; positive | mutagenic call (Species/Cell Type: Human diploid fibroblasts, Assay Type: Unscheduled DNA synthesis (UDS) in vitro, DNA effects, Assay Code: UDH+D, Dose Response: With dose response, Evaluation Type: Evaluation A (Pre-1980)) active; positive | mutagenic call (Species/Cell Type: Human lymphocytes or leukocytes, Assay Type: Chromosome aberrations in vivo, Assay Code: CY8+, Evaluation Type: Evaluation A (Pre-1980)) active; positive | mutagenic call (Species/Cell Type: Human lymphocytes, Assay Type: Micronucleus test in vitro, chromosome aberrations, Assay Code: MN7+, Evaluation Type: Evaluation A (Pre-1980)) active; positive | mutagenic call (Species/Cell Type: Human lymphocytes, Assay Type: Sister-chromatid exchange (SCE) in vitro, Assay Code: SCL+, Evaluation Type: Evaluation A (Pre-1980)) active; positive | mutagenic call (Species/Cell Type: Human, Assay Type: Sister-chromatid exchange (SCE) in vitro, Assay Code: SC1+D, Dose Response: With dose response, Evaluation Type: Evaluation A (Pre-1980)) active; positive | mutagenic call (Species/Cell Type: Mammalian germ cells, Sex: Male, Assay Type: Chromosome aberrations in vivo, Assay Code: CY9+, Evaluation Type: Evaluation A (Pre-1980)) active; positive | mutagenic call (Species/Cell Type: Mammalian oocytes or early embryo, Assay Type: Chromosome aberrations in vivo, Assay Code: CYO+D, Dose Response: With dose response, Evaluation Type: Evaluation A (Pre-1980)) active; positive | mutagenic call (Species/Cell Type: Mammalian polychromatic erythrocytes, Assay Type: Micronucleus test, chromosome aberrations, Assay Code: MNT+, Evaluation Type: Evaluation A (Pre-1980)) active; positive | mutagenic call (Species/Cell Type: Mouse germ cells, Sex: Male, Assay Type: Unscheduled DNA synthesis (UDS) in vivo, DNA effects, Assay Code: UDT+, Evaluation Type: Evaluation A (Pre-1980)) active; positive | mutagenic call (Species/Cell Type: Mouse lymphoma (L5178Y) cells, Assay Type: Forward gene mutation at the thymidine kinase (TK) locus, chromosome aberrations, Assay Code: L51+, Evaluation Type: Evaluation A (Pre-1980)) active; positive | mutagenic call (Species/Cell Type: Mouse, Sex: Female, Assay Type: Spot test, gene mutation, Assay Code: MST+, Evaluation Type: Evaluation A (Pre-1980)) active; positive | mutagenic call (Species/Cell Type: Mouse, Sex: Male, Assay Type: Heritable translocation test, chromosome aberrations, Assay Code: HTT+, Evaluation Type: Evaluation A (Pre-1980)) active; positive | mutagenic call (Species/Cell Type: Mouse, Sex: Male, Assay Type: Specific locus test, gene mutation, Assay Code: SLT+, Evaluation Type: Evaluation A (Pre-1980)) active; positive | mutagenic call (Species/Cell Type: Mouse, Sex: Male, Assay Type: Sperm morphology, Assay Code: SPI+, Evaluation Type: Evaluation A (Pre-1980)) active; positive | mutagenic call [2] active; positive | call (Species/Cell Type: Nonhuman, Assay Code: CCG+, Evaluation Type: Evaluation A (Pre-1980)) active; positive | mutagenic call (Species/Cell Type: Nonhuman, Assay Type: Sister-chromatid exchange (SCE) in vitro, Assay Code: SC2+D, Dose Response: With dose response, Evaluation Type: Evaluation A (Pre-1980)) active; positive | mutagenic call (Species/Cell Type: Nonhuman, Assay Type: Sister-chromatid exchange (SCE) in vivo, Assay Code: SC3+D, Dose Response: With dose response, Evaluation Type: Evaluation A (Pre-1980)) active; positive | mutagenic call (Species/Cell Type: Rat primary hepatocytes, Assay Type: Unscheduled DNA synthesis (UDS) in vitro, DNA effects, Assay Code: UDP+, Evaluation Type: Evaluation A (Pre-1980)) active; positive | mutagenic call (Species/Cell Type: Rodents, Sex: Male, Assay Type: Dominant lethal test, Assay Code: DLT+D, Dose Response: With dose response, Evaluation Type: Evaluation A (Pre-1980)) active; positive | mutagenic call (Species/Cell Type: Saccharomyces cerevisiae, Assay Type: Forward gene mutation, Assay Code: YEF+, Evaluation Type: Evaluation A (Pre-1980)) active; positive | mutagenic call (Species/Cell Type: Saccharomyces cerevisiae, Assay Type: Mitotic recombination or gene conversion, Assay Code: YEC+, Evaluation Type: Evaluation A (Pre-1980)) active; positive | mutagenic call [3] active; positive | mutagenic call (Species/Cell Type: Saccharomyces cerevisiae, Assay Type: Reverse gene mutation, Assay Code: YER+, Evaluation Type: Evaluation A (Pre-1980)) active; positive | mutagenic call [4] active; positive | mutagenic call (Species/Cell Type: Schizosaccharomyces pombe, Assay Type: Forward gene mutation, Assay Code: YEY+, Evaluation Type: Evaluation A (Pre-1980)) active; positive | mutagenic call (Species/Cell Type: Schizosaccharomyces pombe, Assay Type: Reverse gene mutation, Assay Code: YEZ+, Evaluation Type: Evaluation A (Pre-1980)) active; positive | mutagenic call (Species/Cell Type: Syrian hamster embryo (SA7/SHE) cells, Assay Type: Cell transformation, viral enhanced, Assay Code: CT7+, Evaluation Type: Evaluation A (Pre-1980)) active; positive | mutagenic call (Species/Cell Type: Syrian hamster embryo (SHE) cells, Assay Type: Cell transformation, focus assay, Assay Code: CTF+, Evaluation Type: Evaluation A (Pre-1980)) active; positive | mutagenic call (Species/Cell Type: Vicia faba, Assay Type: Chromosome aberrations, Assay Code: VIC+D, Dose Response: With dose response, Evaluation Type: Evaluation A (Pre-1980)) active; positive

CCCCBr
no conclusion: mutagenic call [5]

COc1ccc(C(=O)N2c3ccccc3Cc3ccccc32)cc1
active: mutagenic call (Species/Cell Type: Human, Sex: Male, Assay Type: Sperm morphology, Assay Code: SPH+, Evaluation Type: Evaluation A (Pre-1980)) active; positive

Clc1ccc(Cl)c(Cl)c1
active: mutagenic call (Species/Cell Type: Mammalian polychromatic erythrocytes, Assay Type: Micronucleus test, chromosome aberrations, Assay Code: MNT+, Evaluation Type: Evaluation B (Post-1980)) active; positive

Cn1sc(Cl)cc1=O
inactive: mutagenic call (Species/Cell Type: Mammalian polychromatic erythrocytes, Assay Type: Micronucleus test, chromosome aberrations, Assay Code: MNT-, Evaluation Type: Evaluation B (Post-1980)) inactive; negative

O=C(OCN=Nc1ccccc1)c1ccccc1
no conclusion: mutagenic call [5]

[Cl][Ni][Cl]
active: mutagenic call (Species/Cell Type: Human lymphocytes, Assay Type: Sister-chromatid exchange (SCE) in vitro, Assay Code: SCL+, Evaluation Type: Evaluation B (Post-1980)) active; positive | mutagenic call (Species/Cell Type: Human, Assay Type: Sister-chromatid exchange (SCE) in vitro, Assay Code: SC1+, Evaluation Type: Evaluation B (Post-1980)) active; positive | mutagenic call (Species/Cell Type: Nonhuman, Assay Type: Sister-chromatid exchange (SCE) in vitro, Assay Code: SC2+, Evaluation Type: Evaluation B (Post-1980)) active; positive
inactive: mutagenic call (Species/Cell Type: Bacillus subtilis (H17 vs M45), Assay Type: Rec-assay, spot test, DNA effects (bacterial DNA repair), Assay Code: REW-, Evaluation Type: Evaluation A (Pre-1980)) inactive; negative | mutagenic call (Species/Cell Type: Escherichia coli WP2, Assay Type: Tryptophan reverse gene mutation, Assay Code: WP2-, Evaluation Type: Evaluation A (Pre-1980)) inactive; negative
no conclusion: mutagenic call (Species/Cell Type: Salmonella typhimurium, Serratia marcesens, Assay Type: Forward and reverse gene mutation, host-mediated assay, Assay Code: HM2T, Evaluation Type: Evaluation A (Pre-1980))

ONc1cccc2ccccc12
inactive: mutagenic call (Species/Cell Type: Salmonella typhimurium, Assay Type: Forward and reverse gene mutation, host-mediated assay, Assay Code: HMA-, Evaluation Type: Evaluation A (Pre-1980)) inactive; negative
active: mutagenic call [1] active; positive | mutagenic call [2] active; positive | call (Species/Cell Type: Nonhuman, Assay Code: CCG+L, Evaluation Type: Evaluation A (Pre-1980)) active; positive | mutagenic call [3] active; positive | mutagenic call [4] active; positive

CC(C(=O)O)c1ccc(N2CC=CC2)c(Cl)c1 (centres undefined)
active: mutagenic call (Species/Cell Type: Human lymphocytes, Assay Type: Sister-chromatid exchange (SCE) in vivo, Assay Code: SCY+, Evaluation Type: Evaluation B (Post-1980)) active; positive

From PubChem BioAssay AID1259408 (Genetic Toxicology Data Bank (GENE-TOX), 2018)
